“Also recorded” adds a separate entry of the source. Bridge positions count the residues as written; N and C are the ends. Peptide text beside a SMILES is read from it.
Key:
GC-C Receptor = biological target: T1, GC-C Receptor (Homo sapiens, UniProt P25092); experiment: Cyclic GMP stimulation assay in T84 cells; type: cell-based
T1 construct: endogenous in cells; host or cells: T84 human colon carcinoma cells
Protocol: (§1) The potency of test peptides to stimulate cGMP synthesis in T84 cells was assayed by a published procedure (Shailubhai et al. 2000). Briefly, confluent monolayers of T-84 cells in 24-well plates were washed twice with 250 μl of DMEM containing 50 mM HEPES (pH 7.4), pre-incubated at 37° C. for 10 min with 250 μl of DMEM containing 50 mM HEPES (pH 7.4) and 1 mM isobutylmethylxanthine (IBMX), followed by incubation with test peptide for 30 min. The medium was aspirated, and the reaction was terminated by the addition of 3% perchloric acid. Following centrifugation, and neutralization with 0.1 N NaOH, the resulting supernatant was used directly for measurements of intracellular cGMP using an ELISA kit (Caymen Chemical, Ann Arbor, Mich.). Results are expressed as pmol of cGMP/mg of protein in the cell extracts.

DSS-induced colitis = DSS-induced colitis in BDF-1 mice; type: in vivo, mouse
Protocol: To evaluate the efficacy of plecanatide in DSS induced colitis model, 48 BDF-1 mice were divided into 8 treatment groups (6 mice/group). One group was not exposed to DSS (untreated control) and groups 2-8 were treated with 5% DSS in the drinking water on day 0. Plecanatide or SP-333 solutions formulated in 0.1M phosphate buffer (pH 7) was administered by oral gavage, once a day at 0.005, 0.05, 0.5, 2.5 and 5 mg/kg, from study day −1 (i.e. prior to initiation of DSS treatment) through day 6 for SP-333 or day 7 for plecanatide. DSS treatment was initiated on day 0 for groups 2-8 until the end of the study. Sulfasalazine (80 mg/kg) or 5-ASA (100 mg/kg) was used as positive control and was administered daily. Mice were sacrificed on day 7. The large intestine was removed and weighed. Distal section of the large intestine was collected and fixed as described above.
(§2) Disease activity index (DAI) was calculated by scoring in-life parameters starting from day −1 until the end of the study. Once daily, all mice were weighed and assessed for stool consistency, and the presence of overt blood in the stool or around the anus essentially similar to that reported earlier. Colitis severity was assessed by histopathological analyses of H&E stained tissue sections (Hegazi et al., 2005; Dave et al., 2009) employing the following criteria: (score 0) normal appearing crypts; (score 1) abnormal crypt pathology without ulceration; (score 2) depleted crypts with ulceration; (score 3) 20-50% depleted crypts and increased ulceration; (score 4) >50% depleted crypts with substantial ulceration and (score 5) totally ulcerated/inflamed colon with no crypts remaining. All slides were scored in a blinded manner. Colitis severity in TCRα−/− model was scored as previously described^25. All slides were scored in a blinded manner. Disease activity index (DAI) was calculated by assessing body weight, stool consistency, and the presence of overt blood in stools or around the anus, essentially similar to that reported earlier (Hamamoto et al., 1999).

TNBS-induced colitis [1] = experiment: TNBS-induced colitis in BDF-1 mice; type: in vivo, mouse
Protocol: Mouse strains BDF1 and BALB/c were used to examine the efficacy of plecanatide in TNBS induced colitis. The procedures used were as previously described (Hegazi et al., 2005; Dave et al., 2009). Briefly, to induce colitis in specific pathogen-free 2-4 months old female BALB/c mice, 0.5 mg of TNBS in 50% ethanol was slowly administered into the lumen of the colon via a 3.5 F catheter fitted onto a 1-ml syringe (total injection volume 100 μl). Plecanatide formulated in PBS was administered by oral gavage for a total of 7 days, with the first dose given one day prior to TNBS challenge. Mice were observed daily for body weight, food consumption and for signs of any apparent toxicity, rectal bleeding or prolapse. After 7 days of treatment, GI tissue collection, fixation and histopathological scoring were performed essentially as described previously (Sheikh et al., 2011). GI tissues were also collected and immediately processed for explant culture and cytokine expression as described below.
To induce colitis in BDF1 mice, a total of 90, 10-12 week old, H. pylori free male mice were used. Animals were randomized into 9 groups. TNBS was rectally administered as described above in a total injection volume of 100 μl. Oral administration of PBS formulated plecanatide (0.0005-50 mg/kg), animal monitoring and collection of GI tissues was performed as described above. Daily administration of plecanatide was continued through day 6, when the mice were euthanized. […] Distal sections were fixed, stained with H&E, and evaluated for histopathology and visual severity scores (Hegazi et al., 2005; Dave et al., 2009). […]
as §2

TNBS-induced colitis [2] = experiment: TNBS-induced colitis in BALB/c mice; type: in vivo, mouse; conditions: plecanatide 0.5 and 2.5 mg/kg oral once daily 7 days; p<0.05; preliminary study
Protocol: Mouse strains BDF1 and BALB/c were used to examine the efficacy of plecanatide in TNBS induced colitis. The procedures used were as previously described (Hegazi et al., 2005; Dave et al., 2009). Briefly, to induce colitis in specific pathogen-free 2-4 months old female BALB/c mice, 0.5 mg of TNBS in 50% ethanol was slowly administered into the lumen of the colon via a 3.5 F catheter fitted onto a 1-ml syringe (total injection volume 100 μl). Plecanatide formulated in PBS was administered by oral gavage for a total of 7 days, with the first dose given one day prior to TNBS challenge. […]
as §2, with “All slides were scored in a blinded manner. Colitis severity in TCRα−/− model was scored as previously described^25. All slides were scored in a blinded manner. Disease activity index (DAI) was calculated by assessing body weight, stool consistency, and the presence of overt blood in stools or around the anus, essentially similar to that reported earlier (Hamamoto et al., 1999).” left out

colonic explants [3] = experiment: Explant cultures of colon tissue from TNBS-induced colitis BALB/c mice, cytokine ELISA; type: in vivo, mouse; conditions: 24 h, vs vehicle-treated explants
Protocol: (§3) Colonic tissue fragments (0.5 g dry weight) from the TNBS-induced colitis mice and TCRα^−/− knockout mice were processed as previously described (Hegazi et al., 2005). Tissue fragment supernatants were collected after 24 h for cytokine ELISAs. Murine immunoassay kits (R&D System) were used according to the manufacturer's instructions for IL-12p40, IL-23 and TNF. Linco Cytokine-16 plex Mouse ELISA was performed for MIP-1α, RANTES, IL-10 and IL-17 (Millipore) as per manufacturer's instructions.
(§4) Murine IL-12 p40, IL-1β, TNF, IFN-γ, immunoassay kits (R&D System, MN, USA) were used according to the manufacturer's instructions. Linco Cytokine-16 plex Mouse ELISA was performed for MIP-1α, RANTES, IL-10, TNF and IL-17 (Millipore, Billerica, Mass.) as per manufacturer's instructions.

colitis in TCRα −/− mice = experiment: Spontaneous colitis in TCRα−/− mice; type: in vivo, mouse; conditions: plecanatide 0.5 and 2.5 mg/kg oral daily for 14 days; vs vehicle
Protocol: TCRα^−/− mice were matched for age and sex in all experiments. 16 week old TCRα−/− mice were treated with plecanatide at 0.5 or 2.5 mg/kg/day or PBS vehicle control by oral gavage for 14 days (6 mice per group). Mice were sacrificed 12 h after the final dose, and GI tissues were collected for experimental analyses. Colitis severity in TCRα^−/− model was scored as described (Berg et al., 1996).
as §2, with “Disease activity index (DAI) was calculated by assessing body weight, stool consistency, and the presence of overt blood in stools or around the anus, essentially similar to that reported earlier (Hamamoto et al., 1999).” left out

colonic explants [4] = experiment: Explant cultures of colon tissue from TCRα−/− mice, cytokine and chemokine ELISA; type: in vivo, mouse; conditions: explant culture 24 h, plecanatide treated mice
Protocol: as §3, §4

[5] = type: in vitro ADME
Protocol: (§5) Plecanatide and SP-333 were incubated in simulated intestinal fluid (SIF) for 6-24 h. Inactivated SIF was used as a control. Following the treatment, samples were analyzed by HPLC by cGMP production in T84 cells. […] The active metabolite, SP-338 was characterized by MS and MS/MS and identified to be formed via removal of carboxyl terminal leucine possibly due to cleavage by carboxypeptidases.

[6] = type: in vitro ADME; remark: listed apart in the source
Protocol: as §1, §5

colon dysplasia = conditions: oral plecanatide; Chang et al., 2014; Shailubhai et al., 2012; cited from earlier work

T1 sequence (P25092 24-1073): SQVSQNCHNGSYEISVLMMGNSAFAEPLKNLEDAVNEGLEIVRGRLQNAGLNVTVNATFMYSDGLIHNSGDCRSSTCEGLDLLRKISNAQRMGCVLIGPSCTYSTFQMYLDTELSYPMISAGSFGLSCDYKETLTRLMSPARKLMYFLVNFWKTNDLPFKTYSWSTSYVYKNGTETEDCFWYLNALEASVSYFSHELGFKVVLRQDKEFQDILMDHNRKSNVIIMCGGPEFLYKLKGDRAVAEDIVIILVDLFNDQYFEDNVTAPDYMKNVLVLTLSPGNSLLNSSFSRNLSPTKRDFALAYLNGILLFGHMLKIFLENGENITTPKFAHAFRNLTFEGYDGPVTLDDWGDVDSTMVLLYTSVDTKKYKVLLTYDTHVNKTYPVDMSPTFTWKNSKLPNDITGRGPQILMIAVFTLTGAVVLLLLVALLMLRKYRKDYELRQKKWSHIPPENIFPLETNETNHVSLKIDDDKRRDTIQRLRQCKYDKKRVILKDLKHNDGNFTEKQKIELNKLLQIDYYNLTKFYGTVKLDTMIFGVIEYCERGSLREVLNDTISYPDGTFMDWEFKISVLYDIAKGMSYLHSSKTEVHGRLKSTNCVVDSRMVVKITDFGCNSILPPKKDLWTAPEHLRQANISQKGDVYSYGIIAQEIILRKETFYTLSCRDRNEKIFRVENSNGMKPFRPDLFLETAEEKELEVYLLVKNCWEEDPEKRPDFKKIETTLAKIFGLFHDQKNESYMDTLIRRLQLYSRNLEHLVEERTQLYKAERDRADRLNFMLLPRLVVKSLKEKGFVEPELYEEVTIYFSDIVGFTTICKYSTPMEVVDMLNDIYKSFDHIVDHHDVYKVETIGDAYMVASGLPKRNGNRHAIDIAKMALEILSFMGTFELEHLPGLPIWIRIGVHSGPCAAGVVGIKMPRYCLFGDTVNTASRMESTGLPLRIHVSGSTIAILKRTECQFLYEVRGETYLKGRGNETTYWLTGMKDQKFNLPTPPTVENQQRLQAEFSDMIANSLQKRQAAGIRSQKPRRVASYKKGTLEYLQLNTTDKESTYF

CC(C)C[C@H](NC(=O)[C@@H]1CSSC[C@@H]2NC(=O)[C@H](CC(C)C)NC(=O)[C@H](CCC(=O)O)NC(=O)[C@@H](NC(=O)[C@H](CCC(=O)O)NC(=O)[C@H](CC(=O)O)NC(=O)[C@@H](N)CC(N)=O)CSSC[C@H](NC(=O)[C@H](C)NC(=O)[C@H](C(C)C)NC(=O)[C@H](CC(N)=O)NC(=O)[C@H](C(C)C)NC2=O)C(=O)N[C@@H]([C@@H](C)O)C(=O)NCC(=O)N1)C(=O)O [plecanatide, Asn^1-Asp^2-Glu^3-Cys^4-Glu^5-Leu^6-Cys^7-Val^8-Asn^9-Val^10-Ala^11-Cys^12-Thr^13-Gly^14-Cys^15-Leu^16] (H-NDECELCVNVACTGCL-OH; disulfide 4-12, 7-15 (inferred))
potency to stimulate cGMP in T84 cells (GC-C Receptor): dose dependent increase in cGMP; also recorded: comparable to that of SP-333 | DSS induced colitis severity score (DSS-induced colitis; plecanatide 0.005 mg/kg oral gavage once a day, vs untreated controls p=0.02): significantly lower; also recorded: as effective as sulfasalazine (80 mg/kg) | amelioration of DSS-induced colitis at higher doses (DSS-induced colitis; plecanatide doses higher than 0.005 mg/day (so in the source)): did not produce incremental effect | colitis severity compared with reference compound sulfasalazine (80 mg/kg) (DSS-induced colitis; plecanatide, DSS model): superior to treatment with reference compound | colitis severity (TNBS-induced colitis [1]; plecanatide 0.05 mg/kg and higher doses oral, vs untreated controls): significantly lower; also recorded: statistically significant reduction | colitis severity (TNBS-induced colitis [1]; plecanatide doses under 0.005 mg/kg oral): ineffective | effective dose-range (TNBS-induced colitis [1]; plecanatide oral, TNBS model): 0.05 to 0.5 mg/kg | colitis severity compared with reference compound sulfasalazine (80 mg/kg) (TNBS-induced colitis [1]; plecanatide, TNBS model): superior to treatment with reference compound | colitis scores (TNBS-induced colitis [2]): significantly lower; also recorded: effectively ameliorated | suppression of secretion of IL-12p40 (colonic explants [3]): 37% | suppression of secretion of IL-23 (colonic explants [3]): 84% | suppression of secretion of TNF (colonic explants [3]): 67% | colitis scores (colitis in TCRα −/− mice): reduced | levels of secreted IL-10 (colonic explants [4]): increased | production of IL-17 (colonic explants [4]): considerably suppressed | production of MIP-1α (colonic explants [4]): considerably suppressed | production of RANTES (colonic explants [4]): considerably suppressed | HPLC analysis after digestion with SIF [5]: completely converts plecanatide into a shorter peptide | time over which intact peptide was stable, HPLC [5]: up to 6 h | activity retained [6]: ~70% | biological activity lost [6]: ~35% | colon dysplasia (colon dysplasia): considerably reduced
